Tested on: patients with postpartum depression (PPD)
Experiment: Clinical trial of inhaled 5-MeO-DMT in postpartum depression
Settings: 1 patient
Method: The single-arm, open-label clinical trial will involve 15 adult female patients with clinically diagnosed postpartum depression (PPD).
The second dose (12 mg) will only be administered if: • a. A peak experience (total score of ⋅75) has not been achieved following the 6 mg dose, and • b. The 6 mg dose was safe and well-tolerated according to the investigator, • c. Any psychoactive effects (PsE) of the prior dose have subsided, and • d. Pre-dose vital parameters and forced expiratory volume in one second (FEV1) are in normal range, or if outside of the normal range, are not clinically significant according to the investigator. • 3. Similarly, a third dose (18 mg) will only be administered if: • a. A peak experience (total score of ⋅75) has not been achieved following the 12 mg dose, and • b. The 12 mg dose was safe and well-tolerated according to the investigator, and • c. Any PsE of the prior dose have subsided, and • d. Pre-dose vital parameters and forced expiratory volume in one second (FEV1) are in normal range, or if outside of the normal range, are not clinically significant according to the investigator.
The patients will be assessed for a peak psychedelic experience (based on a patient-scored visual analogue scale, the PE scale), sedation, and other endpoints after dosing. Follow-up visits are planned for Day 1, and Day 7 after the dosing day.
The following criteria must be met by all patients considered for clinical trial participation: • 1. Is female and in the age range between 18 and 45 years (inclusive) at screening. • 2. Has a body mass index (BMI) in the range of 18.5 and 35 kg/m^2 (inclusive) at screening. • 3. Meets the trial criteria for PPD as assessed by a trial psychiatrist or registered psychologist: • a. Diagnosis of Major Depressive Disorder without psychotic features, confirmed by the Mini-International Neuropsychiatric Interview (MINI), with peri-partum onset that began no earlier than gestation and no later than the first 4 weeks postpartum. • b. Has a Montgomery-Åsberg Depression Rating Scale (MADRS) total score of equal to or greater than 28 at screening and pre-dose on Day 0. • 6. […] Patients must have a negative pregnancy test at screening and on the pre-test day (Day −1). • 5. Is willing to delay start of other antidepressant or anxiety medication until after the end of the trial at Day 7 and agrees to keep any psychotherapy unchanged during the trial.
A potential patient who meets any of the following key exclusion criteria will be excluded from participation in this trial: • 1. Has, based on history, psychiatric assessment, and evaluation of the MINI, a current or prior diagnosis of bipolar disorder, a manic or hypomanic episode, a psychotic disorder, Major Depressive Disorder (MDD) or other mood disorder with psychotic features, obsessive compulsive disorder, post-traumatic stress disorder (PTSD), autism spectrum disorder, borderline personality disorder, schizophrenia, delusional disorder, paranoid personality disorder, schizoaffective disorder, clinically significant intellectual disability, or any other psychiatric comorbidity that renders the patient unsuitable for the trial according to the investigator's judgment. • 2. Has one or more first or second degree relatives with a current or previously diagnosed bipolar disorder, psychotic disorder or other mood disorder (including MDD) with psychotic features. • 3. Is in the judgement of a trial psychiatrist or registered psychologist, at significant risk for suicide based on history, psychiatric assessment, and evaluation of suicidal ideation and suicidal behaviour based on the Columbia-Suicide Severity Rating Scale (C-SSRS). • 4. Has taken anti-depressive medication within 14 days or 5 half-lives (whichever is longer) prior to dosing (exception: within the last 5 weeks in the case of fluoxetine). • 5.

Question: Which results are given for `COc1ccc2[nH]cc(CCN(C)C)c2c1` [5-MeO-DMT]?
Answer: BPRS Mannerisms and Posturing score (Day 7, baseline 1): 1; BPRS Motor retardation score (Day 7, baseline 1): 1; BPRS Suspiciousness score (Day 7, baseline 1): 1; BPRS Uncooperativeness score (Day 7, baseline 1): 1; BPRS Unusual Thought Content score (Day 7, baseline 1): 1; BPRS Excitement score (Day 7, baseline 2): 1; MADRS Inability to Feel score (Day 7, baseline 3): 0; MADRS Lassitude score (Day 7, baseline 3): 0; MADRS Pessimistic Thoughts score (Day 7, baseline 4): 0; MADRS Reported sadness score (Day 7, baseline 4): 0; BPRS Emotional withdrawal score (Day 7, baseline 5): 1; MADRS Apparent sadness score (Day 7, baseline 5): 0; MADRS Inner Tension score (Day 7, baseline 5): 1; MADRS Reduced Sleep score (Day 7, baseline 5): 0; BPRS Depressive Mood score (Day 7, baseline 6): 1; BPRS Guilt feelings score (Day 7, baseline 6): 1; BPRS Somatic Concern score (Day 7, baseline 6): 1; BPRS Tension score (Day 7, baseline 6): 1; BPRS Anxiety score (Day 7, baseline 7): 1; BIMF functional domain Adjustment Δ (Day 7) (Day 7 vs Day 0): 1; BIMF functional domain Infant Care Δ (Day 7) (Day 7 vs Day 0): 0; BIMF functional domain Management Δ (Day 7) (Day 7 vs Day 0): 5; BIMF functional domain Mother-Child Interaction Δ (Day 7) (Day 7 vs Day 0): 2; BIMF functional domain Psychological Well-being Δ (Day 7) (Day 7 vs Day 0): 9; BIMF functional domain Self Care Δ (Day 7) (Day 7 vs Day 0): 4; BIMF functional domain Social Support Δ (Day 7) (Day 7 vs Day 0): 1; BIMF item 1 (I am a good mother) Δ (Day 7) (Day 7 vs Day 0): 0; BIMF item 2 (I feel rested) Δ (Day 7) (Day 7 vs Day 0): 2; BIMF item 3 (comfortable with the way I've chosen to feed my baby) Δ (Day 7) (Day 7 vs Day 0): 0; BIMF item 4 (My baby and I understand each other) Δ (Day 7) (Day 7 vs Day 0): 0; BIMF item 5 (able to relax and enjoy time with my baby) Δ (Day 7) (Day 7 vs Day 0): 1; BIMF item 6 (people in my life that I can trust to care for my baby) Δ (Day 7) (Day 7 vs Day 0): 0; BIMF item 8 (getting enough adult interaction) Δ (Day 7) (Day 7 vs Day 0): 0; BIMF item 9 (getting enough encouragement from other people) Δ (Day 7) (Day 7 vs Day 0): 1; BIMF item 10 (I trust my own feelings (instincts)) Δ (Day 7) (Day 7 vs Day 0): 1; BIMF item 11 (a little time each week to do something for myself) Δ (Day 7) (Day 7 vs Day 0): 1; BIMF item 12 (taking good care of my baby's physical needs) Δ (Day 7) (Day 7 vs Day 0): 0; BIMF item 13 (taking good care of my physical needs) Δ (Day 7) (Day 7 vs Day 0): 1; BIMF item 14 (good decisions about my baby's health and well being) Δ (Day 7) (Day 7 vs Day 0): 0; BIMF item 15 (My baby and I are getting into a routine) Δ (Day 7) (Day 7 vs Day 0): 1; BIMF item 16 (I worry about how other people judge me) Δ (Day 7) (Day 7 vs Day 0): 2; BIMF item 17 (able to take care of my baby and my other responsibilities) Δ (Day 7) (Day 7 vs Day 0): 0; BIMF item 18 (Anxiety or worry often interferes with my mothering ability) Δ (Day 7) (Day 7 vs Day 0): 3; BIMF item 19 (getting better at taking care of my baby) Δ (Day 7) (Day 7 vs Day 0): 1; BIMF item 20 (satisfied with the job I am doing as a new mother) Δ (Day 7) (Day 7 vs Day 0): −1; BPRS Anxiety improvement (Day 7 vs baseline): 6; BPRS Blunted affect improvement (Day 7 vs baseline): 0; BPRS Conceptual disorganization improvement (Day 7 vs baseline): 0; BPRS Depressive Mood improvement (Day 7 vs baseline): 5; BPRS Disorientation improvement (Day 7 vs baseline): 0; BPRS Emotional withdrawal improvement (Day 7 vs baseline): 4; BPRS Excitement improvement (Day 7 vs baseline): 1; BPRS Grandiosity improvement (Day 7 vs baseline): 0; BPRS Guilt feelings improvement (Day 7 vs baseline): 5; BPRS Hallucinatory behaviour improvement (Day 7 vs baseline): 0; BPRS Hostility improvement (Day 7 vs baseline): 0; BPRS Mannerisms and Posturing improvement (Day 7 vs baseline): 0; BPRS Motor retardation improvement (Day 7 vs baseline): 0; BPRS Somatic Concern improvement (Day 7 vs baseline): 5; BPRS Suspiciousness improvement (Day 7 vs baseline): 0; BPRS Tension improvement (Day 7 vs baseline): 5; BPRS Uncooperativeness improvement (Day 7 vs baseline): 0; BPRS Unusual Thought Content improvement (Day 7 vs baseline): 0; MADRS Apparent sadness improvement (Day 7 vs baseline): 5; MADRS Concentration Difficulties improvement (Day 7 vs baseline): 0; MADRS Inability to Feel improvement (Day 7 vs baseline): 3; MADRS Inner Tension improvement (Day 7 vs baseline): 4; MADRS Lassitude improvement (Day 7 vs baseline): 3; MADRS Pessimistic Thoughts improvement (Day 7 vs baseline): 4; MADRS Reduced Sleep improvement (Day 7 vs baseline): 5; MADRS Reduced appetite improvement (Day 7 vs baseline): 0; MADRS Reported sadness improvement (Day 7 vs baseline): 4; MADRS Suicidal Thoughts improvement (Day 7 vs baseline): 0; BPRS Anxiety improvement (Discharge vs baseline): 6; BPRS Blunted affect improvement (Discharge vs baseline): 0; BPRS Conceptual disorganization improvement (Discharge vs baseline): 0; BPRS Depressive Mood improvement (Discharge vs baseline): 5; BPRS Disorientation improvement (Discharge vs baseline): 0; BPRS Emotional withdrawal improvement (Discharge vs baseline): 4; BPRS Excitement improvement (Discharge vs baseline): 1; BPRS Grandiosity improvement (Discharge vs baseline): 0; BPRS Guilt feelings improvement (Discharge vs baseline): 5; BPRS Hallucinatory behaviour improvement (Discharge vs baseline): 0; BPRS Hostility improvement (Discharge vs baseline): 0; BPRS Mannerisms and Posturing improvement (Discharge vs baseline): 0; BPRS Motor retardation improvement (Discharge vs baseline): 0; BPRS Somatic Concern improvement (Discharge vs baseline): 5; BPRS Suspiciousness improvement (Discharge vs baseline): 0; BPRS Uncooperativeness improvement (Discharge vs baseline): 0; BPRS Unusual Thought Content improvement (Discharge vs baseline): 0; BPRS Blunted affect score (Discharge, baseline 1): 1; BPRS Conceptual disorganization score (Discharge, baseline 1): 1; BPRS Disorientation score (Discharge, baseline 1): 1; BPRS Grandiosity score (Discharge, baseline 1): 1; BPRS Hallucinatory behaviour score (Discharge, baseline 1): 1; BPRS Hostility score (Discharge, baseline 1): 1; BPRS Mannerisms and Posturing score (Discharge, baseline 1): 1; BPRS Motor retardation score (Discharge, baseline 1): 1; BPRS Suspiciousness score (Discharge, baseline 1): 1; BPRS Uncooperativeness score (Discharge, baseline 1): 1; BPRS Unusual Thought Content score (Discharge, baseline 1): 1; BPRS Excitement score (Discharge, baseline 2): 1; BPRS Emotional withdrawal score (Discharge, baseline 5): 1; BPRS Depressive Mood score (Discharge, baseline 6): 1; BPRS Guilt feelings score (Discharge, baseline 6): 1; BPRS Somatic Concern score (Discharge, baseline 6): 1; BPRS Tension score (Discharge, baseline 6): 1; BPRS Anxiety score (Discharge, baseline 7): 1; Changes in vital parameters (shortly after administration): temporary, clinically non-relevant increase in heart rate and blood pressure

From US20250241892A1, “5-METHOXY-N,N-[…][…] THE TREATMENT OF PSYCHOMOTOR RETARDATION” (GH RESEARCH IRELAND LIMITED, priority 2022, published 2025)
